Data taken from patent publication US6340455B1, “Testkit and method” (Peridoc AB, priority 1996, dated 2002).

Tested on: individuals (patients with severe marginal periodontitis, healthy control individuals)
Assay: Skin Prick Test with Lipid A
Type: in vivo, human
Details: for % + with 0.1 mg Lipid A / % + with 1 mg Lipid A: result registered after 18 to 24 hours
Experimental: Skin Prick Test with Lipid A was performed on three groups of individuals:
Patients with severe marginal periodontitis which responds to treatment.
Healthy control individuals without marginal periodontitis.
(The test was performed according to a routine procedure as described in Aas K, Backman A, Berlin L, Weeke B. Standardization of allergen extracts with appropriate methods. The combined use of skin prick testing and standardization of allergen extracts. Acta Allergol 1978; 33:238-240, and in Malling H-J. The skin prick testing and the use of histamine references. Allergy 1984; 39:596-601).
Patient and disease characteristics for the three groups can be found in Table 1 below. GI (gingival index) was used as measure of active disease. […] The test substance was Lipid A dissolved in water (0.1 mg/ml and 1 mg/ml). Histamine (10 mg/ml in water) and water served as positive and negative controls, respectively. The result was registered after 18 to 24 hours.
Students t-test was employed to test levels of significance for differences between test and control groups.

[1] = healthy control individuals without marginal periodontitis, n=16
[2] = patients with severe marginal periodontitis which responds to treatment (GI ≦ 20), n=38
[3] = refractory patients: severe marginal periodontitis not responding to treatment (GI > 20), n=14

Row | Compound | % + with 0.1 mg Lipid A [1] [%] | % + with 1 mg Lipid A [1] [%] | % + with 0.1 mg Lipid A [2] [%] | % + with 1 mg Lipid A [2] [%] | response to Lipid A in skin prick test (in words) (refractory patients (severe marginal periodontitis not responding to treatment)) | % + with 0.1 mg Lipid A [3] [%] | % + with 1 mg Lipid A [3] [%] | skin prick reaction (positive/negative) (all individuals of the three groups, histamine 10 mg/ml in water, positive control)
1 | Lipid A | 18.8 | 50.0 | 21.1 | 57.9 | almost no positive response | 7.1 | 7.1 | 
2 | NCCc1c[nH]cn1 [histamine] |  |  |  |  |  |  |  | reacted positively
